The values below come from ChEMBL document CHEMBL4130615, “Evaluation of Diarylheptanoid-Terpene Adduct Enantiomers from Alpinia officinarum for Neuroprotective Activities” (J Nat Prod, 2018).

Calls of active or inactive are those of the source. The rule behind the calls is not given here.

In assay [1] the test system is Cortical neurone. The experiment in a line: Neuroprotective activity against MPP+-induced cell death in Sprague-Dawley rat cortical neurons assessed as increase in cell viability at 4 to 32 uM pretreated for 12 hrs followed by MPP+ challenge measured after 20 hrs by MTT assay. Format: functional, cell-based.
In assay [2] the test system is Cortical neurone. The experiment in a line: Neuroprotective activity against MPP+-induced cell death in Sprague-Dawley rat cortical neurons assessed as increase in cell viability at 16 uM pretreated for 12 hrs followed by MPP+ challenge measured after 20 hrs by MTT assay. Type of assay: functional, cell-based.

Consider `COc1cc(CC/C=C/C(=O)CCc2ccccc2)ccc1O`, for which, in the assay on Cortical neurone [1], the outcome was inactive.
Still for that read-out and setting: under `C=CC(=C)CCC=C(C)C` stands “inactive”.
With `COc1cc(CC[C@H]2CC=C(CCC=C(C)C)C[C@@H]2C(=O)CCc2ccccc2)ccc1O`, the outcome with Cortical neurone [2] was Active.
In the case of `COc1cc(CC[C@@H]2CC=C(CCC=C(C)C)C[C@H]2C(=O)CCc2ccccc2)ccc1O`, the outcome in the assay with Cortical neurone [1] was inactive.
